In US20020137891A1, “Protein scaffold and its use to multimerise monomeric polypeptides” (priority 1999, published 2002):

Legend:
[1] = target: T1, pig heart mitochondrial malate dehydrogenase (mtMDH) (Sus scrofa, UniProt P00346); test: In vitro refolding and aggregation protection of heat- and dithiothreitol-denatured mtMDH; assay type: biochemical
T1 construct: pig heart mitochondrial malate dehydrogenase (mtMDH; Boehringer-Mannheim); purchased Boehringer-Mannheim; host or cells: pig heart
T1 sequence (P00346 25-338): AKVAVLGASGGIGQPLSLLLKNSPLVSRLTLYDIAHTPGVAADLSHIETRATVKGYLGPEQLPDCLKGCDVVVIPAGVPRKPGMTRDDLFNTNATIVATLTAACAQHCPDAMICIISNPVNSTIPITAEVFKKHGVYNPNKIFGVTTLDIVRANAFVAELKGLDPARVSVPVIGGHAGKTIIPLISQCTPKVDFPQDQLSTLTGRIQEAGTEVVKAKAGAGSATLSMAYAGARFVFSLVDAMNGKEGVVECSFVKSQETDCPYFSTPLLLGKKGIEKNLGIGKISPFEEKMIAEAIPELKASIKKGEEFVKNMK
Procedure: In vitro refolding experiments. Refolding assays of pig heart mitochondrial malate dehydrogenase (mtMDH; Boehringer-Mannheim) and aggregation protection were carried out essentially as described (Peres Ben-Zvi, A. P., Chatellier, J., Fersht, A. R. & Goloubinoff, P. (1998) Proc. Natl. Acad. Sci. U.S.A. 95, 15275-15280). The concentrations of MC7 used were between 8-16 μM (reporter to protomer).

[2] = system: AI90 (ΔgroEL::kan^R) [pBADEL] E. coli strain; test: Plating ability of transformed AI90 (ΔgroEL::kan^R) [pBAD-EL] at 37° C. on depletion of GroEL; assay type: cell-based
Procedure: AI90 (ΔgroEL::kan^R) [pBAD-EL] cells were transformed with the pJC vector series. Transformants were selected at 37° C. on LB supplemented with 50 μg.ml^−1 of kanamycin, 120 μg.mL^−1 of ampicillin, 25 μg.mL^1 of chloramphenicol and 0.2% L(+)arabinose. Depletion of GroEL protein was analysed at 37° C. by plating the same quantity of AI90 [pBAD-EL+pJC vectors] cells on LB plates containing 1% D(+)glucose or various amount of arabinose.
Each experiment was performed in triplicate. Plasmids carrying no groE genes or encoding the GroE proteins were used as negative or positive controls, respectively.

bacteriophage λ (b2cI) = test: Growth (plaque formation) of bacteriophage λ at 30° C. in transformed wild-type and groEL mutant strains; assay type: cell-based, E. coli
Description: Bacterial and bacteriophage strains. The E. coli strains used in this study were: C41(DE3), a mutant of BL21(DE3) capable of expressing toxic genes (Miroux, B. & Walker, J. E. (1996) J. Mol. Biol. 260, 289-298); SV2 (B178groEL44), SV3 (B178groEL59) and SV6 (B178groEL673): isogenic strains carrying temperature-sensitive alleles of groEL; SV1(=B178) (Georgopoulos, C., Hendrix, R. W., Casjens, S. R. & Kaiser, A. D. (1973) J. Mol. Biol. 76, 45-60), AI90 (ΔgroEL::kan^R) [pBAD-EL] (Ivic, A., Olden, D., Wallington, E. J. & Lund, P. A. (1997) Gene 194, 1-8), and TG1 (Gibson, T. J. (1984) Ph.D. thesis, University of Cambridge, U.K). Bacteriophage λb2cI (Zeilstra-Ryalls, J., Fayet, O., Baird, L. & Georgopoulos, C. (1993) J. Bacteriol. 175, 1134-1143) was used according to standard methods (Arber, W., Enquist, L., Hohn, B., Murray, N. E. & Murray, K. (1983) in Lambda II., ed. R. W. Hendrix, J. W. r., F. W. Stahl and R. A. Weisberg (Cold Spring Harbor Laboratory, Cold Spring Harbor, N.Y.), pp. 433-466); plaque formation was assayed at 30° C. T4D0, a derivative of bacteriophage T4 (Zeilstra-Ryalls, J., Fayet, O., Baird, L. & Georgopoulos, C. (1993) J. Bacteriol. 175, 1134-1143), was used according to standard methods (Karam, J. D. (1994) Molecular biology of bacteriophage T4. (American Society for Microbiology, Washington, D.C.)); plaque formation was assayed at 37° C.
Bacteriophage λ requires the chaperonins GroES and GroEL for protein folding during morphogenesis; bacteriophage T4 requires GroEL and Gp31, the latter being encoded by the bacteriophage genome (Zeilstra-Ryalls, J., Fayet, O. & Georgopoulos, C. (1991) Annu. Rev. Microbiol. 45, 301-325). Nine groE alleles which fail to support λ growth have been sequenced (Zeilstra-Ryalls, J., Fayet, O., Baird, L. & Georgopoulos, C. (1993) J. Bacteriol. 175, 1134-1143). We examined the ability of MC7, over-expressed from the constitutive tet promoter on a high-copy number vector (see FIG. 2), to complement three mutant groEL alleles for plaque formation by λ (b2cI) at 30° C. (Table 3) and T4 at 37° C. (Table 4).

SV2 [pBADGroES] = conditions: SV2 over-expressing GroES from pBAD

GroEL (1-548): E. coli molecular chaperone, 14 subunits of 57.5 kD in two seven membered rings [reference compound]
yield of refolded mtMDH ([1]; after 120 min, FIG. 7c): 6 nM
rate of refolding of denatured mtMDH ([1]; reactivation at 25° C., chaperone alone, FIG. 7b): 0.04 nM/min
Plating ability ([2]; 0.00 % L(+)arabinose): +++ (growth identical to that in presence of 0.2% L(+)arabinose (100%), in terms of both number and size)
Plating ability ([2]; 0.01 % L(+)arabinose): +++ (growth identical to that in presence of 0.2% L(+)arabinose (100%), in terms of both number and size)
Plating ability ([2]; 0.10 % L(+)arabinose): +++ (growth identical to that in presence of 0.2% L(+)arabinose (100%), in terms of both number and size)
Plating ability ([2]; 0.15 % L(+)arabinose): +++ (growth identical to that in presence of 0.2% L(+)arabinose (100%), in terms of both number and size)
Complementation of groEL mutant strains for bacteriophage λ growth (in words) (bacteriophage λ (b2cI)): weak complementation of λ growth in SV2 (groEL44) and SV3 (groEL59; Ser201→Phe)
Effect of over-expression on plaque formation by bacteriophage λ in SV1 (groE^+) (in words) (bacteriophage λ (b2cI)): suffices to inhibit λ growth
Growth of bacteriophage λ, SV1 (groEL^+) (bacteriophage λ (b2cI); pJC plasmid): − (no visible plaques (<10^−4))
Growth of bacteriophage λ, SV2 groEL44 (bacteriophage λ (b2cI); pJC plasmid): + (10-fold fewer plaques, or plaque size reduced relative to wild-type groEL^+ strain, or both)
Growth of bacteriophage λ, SV3 GroEL59 (bacteriophage λ (b2cI); pJC plasmid): ++ (5-fold fewer plaques relative to wild-type groEL^+ strain, or both)
Growth of bacteriophage λ, SV6 groEL673 (bacteriophage λ (b2cI); pJC plasmid): +/− (10^2-fold fewer plaques and plaque size reduced relative to wild-type groEL^+ strain)
Plaque size and number (SV2 [pBADGroES]): do not completely eliminate them
